# In patent EP0286578A1, “4,15-Disubstituted 4-androsten-3,17-diones, and process for their preparation” (SCHERING AKTIENGESELLSCHAFT, priority 1987, dated 1988):
# Target: T1, Aromatase (Rattus norvegicus, UniProt P22443)
# T1 construct: Invantile weibliche Ratten reagieren auf PMSG (Pregnant Mare's Serum Gonadotropin)-Behandlung mit einheitlich erhöhter Steroidsynthese; from tissue; host or cells: living infantile female rats (whole animal; serum estradiol read-out)
# T1 sequence (P22443 1-508): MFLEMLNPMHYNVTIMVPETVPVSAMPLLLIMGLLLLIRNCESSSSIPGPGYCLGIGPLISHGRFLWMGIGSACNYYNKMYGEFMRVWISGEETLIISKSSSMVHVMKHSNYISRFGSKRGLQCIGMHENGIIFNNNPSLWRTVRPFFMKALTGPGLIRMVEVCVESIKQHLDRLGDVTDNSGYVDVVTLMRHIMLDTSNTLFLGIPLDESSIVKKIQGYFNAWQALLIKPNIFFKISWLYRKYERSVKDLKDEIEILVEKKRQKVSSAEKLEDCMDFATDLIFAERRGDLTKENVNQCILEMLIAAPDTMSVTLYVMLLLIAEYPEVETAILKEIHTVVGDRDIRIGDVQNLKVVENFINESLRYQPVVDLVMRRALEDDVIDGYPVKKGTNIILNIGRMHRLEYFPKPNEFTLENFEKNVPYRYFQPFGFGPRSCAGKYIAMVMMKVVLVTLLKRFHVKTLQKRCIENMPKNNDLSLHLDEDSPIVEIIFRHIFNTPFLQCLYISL
# Test: PMSG test in infantile female rats (serum estradiol by radioimmunoassay)
# Type: in vivo, Ratte
# Settings: for Konzentration im Serum Östradiol: infantile Ratten, PMSG-stimulated, 2 x 10 mg/Tier p.o., serum 24 h after last PMSG, mean ± SD, 10 animals per group
SMILES,Konzentration im Serum Östradiol,"Wirksamkeit (PMSG test, oral application, dose range tested 2 x 10 mg, result in words)"
"CC[C@@H]1CC(=O)[C@@]2(C)CC[C@H]3[C@@H](CCC4=C(OC(C)=O)C(=O)CC[C@@]43C)[C@H]12 [C, 4-Acetoxy-15β-ethyl-4-androsten-3,17-dion]","2,34 ± 0,46 nMol/l",
"CC[C@@H]1CC(=O)[C@@]2(C)CC[C@H]3[C@@H](CCC4=C(O)C(=O)CC[C@@]43C)[C@H]12 [B, 15β-Ethyl-4-hydroxy-4-androsten-3,17-dion]","2,83 ± 0,29 nMol/l",
"C[C@]12CCC(=O)C(O)=C1CC[C@@H]1[C@@H]2CC[C@]2(C)C(=O)CC[C@@H]12 [A, 4-Hydroxy-4-androsten-3,17-dion]","3,45 ± 0,18 nMol/l",keine Wirksamkeit
